# Columns and labels:
# Assay type in all cases: functional
# Staphylococcus aureus [1] = experiment: Antimicrobial activity against methicillin-resistant Staphylococcus aureus isolate 309-8
# Staphylococcus aureus [2] = experiment: Antimicrobial activity against methicillin-resistant Staphylococcus aureus isolate 6-42
# Staphylococcus aureus [3] = experiment: Antimicrobial activity against Staphylococcus aureus ATCC 6538
# Staphylococcus aureus [4] = experiment: Antimicrobial activity against methicillin-resistant Staphylococcus aureus isolate Chaoyang
# Staphylococcus aureus [5] = experiment: Antimicrobial activity against methicillin-resistant Staphylococcus aureus isolate 309-7
# Staphylococcus aureus [6] = experiment: Antimicrobial activity against methicillin-sensitive Staphylococcus aureus isolate 309-1
# Staphylococcus aureus [7] = experiment: Antimicrobial activity against methicillin-resistant Staphylococcus aureus isolate 309-4
# Pseudomonas aeruginosa = experiment: Antimicrobial activity against Pseudomonas aeruginosa PAO1
# Staphylococcus aureus [8] = experiment: Antimicrobial activity against methicillin-resistant Staphylococcus aureus
# Bacillus subtilis = experiment: Antimicrobial activity against Bacillus subtilis ATCC 6633
Compound,MBC (Staphylococcus aureus [1]),MIC (Staphylococcus aureus [1]),MBC (Staphylococcus aureus [2]),MIC (Staphylococcus aureus [2]),MBC (Staphylococcus aureus [3]),MIC (Staphylococcus aureus [3]),MBC (Staphylococcus aureus [4]),MIC (Staphylococcus aureus [4]),MBC (Staphylococcus aureus [5]),MIC (Staphylococcus aureus [5]),MBC (Staphylococcus aureus [6]),MIC (Staphylococcus aureus [6]),MBC (Staphylococcus aureus [7]),MIC (Staphylococcus aureus [7]),MIC (Pseudomonas aeruginosa),MIC (Staphylococcus aureus [8]),MIC (Bacillus subtilis)
O=[N+]([O-])c1ccc(S)cc1,> 100 mg/L,1.56 mg/L,> 100 mg/L,1.56 mg/L,> 100 mg/L,3.13 mg/L,> 100 mg/L,1.56 mg/L,> 100 mg/L,1.56 mg/L,> 100 mg/L,1.56 mg/L,> 100 mg/L,1.56 mg/L,–,–,–
COC(=O)CC[C@H](N)C(=O)OC,> 100 mg/L,> 100 mg/L,> 100 mg/L,> 100 mg/L,> 100 mg/L,> 100 mg/L,> 100 mg/L,> 100 mg/L,> 100 mg/L,> 100 mg/L,> 100 mg/L,> 100 mg/L,> 100 mg/L,> 100 mg/L,–,–,–
CCOC(=O)c1ccccc1SN1C(=O)C(=O)c2cc(Br)cc(Br)c21,–,–,–,–,–,–,–,–,–,–,–,–,–,–,> 100 mg/L,25 mg/L,> 100 mg/L
CCOC(=O)[C@H](Cc1c[nH]c2ccccc12)NSc1ccccc1[N+](=O)[O-],> 100 mg/L,6.25 mg/L,> 100 mg/L,1.56 mg/L,> 100 mg/L,6.25 mg/L,> 100 mg/L,1.56 mg/L,> 100 mg/L,6.25 mg/L,> 100 mg/L,12.5 mg/L,> 100 mg/L,12.5 mg/L,> 100 mg/L,1.56 mg/L,6.25 mg/L
CC(C)OC(=O)[C@H](Cc1c[nH]c2ccccc12)NSc1ccccc1[N+](=O)[O-],> 100 mg/L,6.25 mg/L,> 100 mg/L,3.13 mg/L,> 100 mg/L,6.25 mg/L,> 100 mg/L,3.13 mg/L,> 100 mg/L,6.25 mg/L,> 100 mg/L,25 mg/L,> 100 mg/L,25 mg/L,> 100 mg/L,3.13 mg/L,12.5 mg/L
COC(=O)[C@H](Cc1c[nH]c2ccccc12)NSc1ccccc1,–,–,–,–,–,–,–,–,–,–,–,–,–,–,> 100 mg/L,50 mg/L,25 mg/L
CCOC(=O)[C@H](Cc1c[nH]c2ccccc12)NSc1ccccc1,–,–,–,–,–,–,–,–,–,–,–,–,–,–,> 100 mg/L,25 mg/L,25 mg/L
CCOC(=O)[C@H](Cc1c[nH]c2ccccc12)NSc1ccc(C)cc1,–,–,–,–,–,–,–,–,–,–,–,–,–,–,> 100 mg/L,> 100 mg/L,25 mg/L
Cc1ccc(SN[C@@H](Cc2c[nH]c3ccccc23)C(=O)OC(C)C)cc1,–,–,–,–,–,–,–,–,–,–,–,–,–,–,> 100 mg/L,> 100 mg/L,25 mg/L
COC(=O)[C@H](Cc1c[nH]c2ccccc12)NSc1ccc([N+](=O)[O-])cc1,–,–,–,–,–,–,–,–,–,–,–,–,–,–,> 100 mg/L,> 100 mg/L,25 mg/L
COC(=O)[C@H](Cc1c[nH]c2ccccc12)NSc1ccc([N+](=O)[O-])cc1[N+](=O)[O-],–,–,–,–,–,–,–,–,–,–,–,–,–,–,> 100 mg/L,> 100 mg/L,25 mg/L
CCOC(=O)[C@H](Cc1c[nH]c2ccccc12)NSc1ccc([N+](=O)[O-])cc1[N+](=O)[O-],–,–,–,–,–,–,–,–,–,–,–,–,–,–,> 100 mg/L,> 100 mg/L,25 mg/L
COC(=O)CC[C@H](NSc1ccccc1[N+](=O)[O-])C(=O)OC,–,–,–,–,–,–,–,–,–,–,–,–,–,–,> 100 mg/L,12.5 mg/L,25 mg/L
CCOC(=O)CC[C@H](NSc1ccccc1[N+](=O)[O-])C(=O)OCC,–,–,–,–,–,–,–,–,–,–,–,–,–,–,> 100 mg/L,25 mg/L,25 mg/L
COC(=O)CC[C@H](NSc1ccc([N+](=O)[O-])cc1)C(=O)OC,> 100 mg/L,3.13 mg/L,> 100 mg/L,1.56 mg/L,> 100 mg/L,6.25 mg/L,> 100 mg/L,1.56 mg/L,> 100 mg/L,3.13 mg/L,> 100 mg/L,6.25 mg/L,> 100 mg/L,6.25 mg/L,> 100 mg/L,1.56 mg/L,3.13 mg/L
COC(=O)CC[C@H](NSc1ccc([N+](=O)[O-])cc1[N+](=O)[O-])C(=O)OC,–,–,–,–,–,–,–,–,–,–,–,–,–,–,> 100 mg/L,> 100 mg/L,50 mg/L

Compound,MBC (Staphylococcus aureus [1]),MIC (Staphylococcus aureus [1]),MBC (Staphylococcus aureus [2]),MIC (Staphylococcus aureus [2]),MBC (Staphylococcus aureus [3]),MIC (Staphylococcus aureus [3]),MBC (Staphylococcus aureus [4]),MIC (Staphylococcus aureus [4]),MBC (Staphylococcus aureus [5]),MIC (Staphylococcus aureus [5]),MBC (Staphylococcus aureus [6]),MIC (Staphylococcus aureus [6]),MBC (Staphylococcus aureus [7]),MIC (Staphylococcus aureus [7]),MIC (Pseudomonas aeruginosa),MIC (Staphylococcus aureus [8]),MIC (Bacillus subtilis)
CCOC(=O)CC[C@H](NSc1ccc([N+](=O)[O-])cc1[N+](=O)[O-])C(=O)OCC,–,–,–,–,–,–,–,–,–,–,–,–,–,–,> 100 mg/L,> 100 mg/L,50 mg/L
CC(C)OC(=O)CC[C@H](NSc1ccc([N+](=O)[O-])cc1[N+](=O)[O-])C(=O)OC(C)C,–,–,–,–,–,–,–,–,–,–,–,–,–,–,> 100 mg/L,> 100 mg/L,25 mg/L
O=C1C(=O)N(Sc2ccccc2[N+](=O)[O-])c2ccccc21,–,–,–,–,–,–,–,–,–,–,–,–,–,–,> 100 mg/L,25 mg/L,> 100 mg/L
O=C1C(=O)N(Sc2ccccc2)c2ccccc21,–,–,–,–,–,–,–,–,–,–,–,–,–,–,> 100 mg/L,50 mg/L,25 mg/L
Cc1ccc(SN2C(=O)C(=O)c3ccccc32)cc1,–,–,–,–,–,–,–,–,–,–,–,–,–,–,> 100 mg/L,> 100 mg/L,> 100 mg/L
COC(=O)c1ccccc1SN1C(=O)C(=O)c2ccccc21,–,–,–,–,–,–,–,–,–,–,–,–,–,–,> 100 mg/L,50 mg/L,> 100 mg/L
CCOC(=O)c1ccccc1SN1C(=O)C(=O)c2ccccc21,–,–,–,–,–,–,–,–,–,–,–,–,–,–,> 100 mg/L,12.5 mg/L,> 100 mg/L
O=C1C(=O)N(Sc2ccc([N+](=O)[O-])cc2[N+](=O)[O-])c2ccccc21,–,–,–,–,–,–,–,–,–,–,–,–,–,–,> 100 mg/L,> 100 mg/L,> 100 mg/L
O=C1C(=O)N(Sc2ccccc2[N+](=O)[O-])c2c(Cl)cccc21,> 100 mg/L,12.5 mg/L,> 100 mg/L,6.25 mg/L,> 100 mg/L,12.5 mg/L,> 100 mg/L,6.25 mg/L,> 100 mg/L,6.25 mg/L,> 100 mg/L,12.5 mg/L,> 100 mg/L,12.5 mg/L,> 100 mg/L,6.25 mg/L,> 100 mg/L
COC(=O)c1ccccc1SN1C(=O)C(=O)c2cccc(Cl)c21,–,–,–,–,–,–,–,–,–,–,–,–,–,–,> 100 mg/L,12.5 mg/L,> 100 mg/L
CCOC(=O)c1ccccc1SN1C(=O)C(=O)c2cccc(Cl)c21,–,–,–,–,–,–,–,–,–,–,–,–,–,–,> 100 mg/L,> 100 mg/L,> 100 mg/L
O=C1C(=O)N(Sc2ccccc2[N+](=O)[O-])c2c(Br)cccc21,–,–,–,–,–,–,–,–,–,–,–,–,–,–,> 100 mg/L,12.5 mg/L,> 100 mg/L
CCOC(=O)c1ccccc1SN1C(=O)C(=O)c2cccc(Br)c21,–,–,–,–,–,–,–,–,–,–,–,–,–,–,> 100 mg/L,> 100 mg/L,> 100 mg/L
O=C1C(=O)N(Sc2ccccc2[N+](=O)[O-])c2c(Br)cc(Br)cc21,–,–,–,–,–,–,–,–,–,–,–,–,–,–,> 100 mg/L,25 mg/L,> 100 mg/L
CCOC(=O)[C@@H](N)Cc1c[nH]c2ccccc12,> 100 mg/L,> 100 mg/L,> 100 mg/L,> 100 mg/L,> 100 mg/L,> 100 mg/L,> 100 mg/L,> 100 mg/L,> 100 mg/L,> 100 mg/L,> 100 mg/L,> 100 mg/L,> 100 mg/L,> 100 mg/L,–,–,–
CN[C@H](CC(C)C)C(=O)N[C@H]1C(=O)N[C@@H](CC(N)=O)C(=O)N[C@H]2C(=O)N[C@H]3C(=O)N[C@H](C(=O)N[C@H](C(=O)O)c4cc(O)cc(O)c4-c4cc3ccc4O)[C@H](O)c3ccc(c(Cl)c3)Oc3cc2cc(c3O[C@@H]2O[C@H](CO)[C@@H](O)[C@H](O)[C@H]2O[C@H]2C[C@](C)(N)[C@H](O)[C@H](C)O2)Oc2ccc(cc2Cl)[C@H]1O [VANCOMYCIN],1 mg/L,–,1 mg/L,–,2 mg/L,–,1 mg/L,–,1 mg/L,–,1 mg/L,–,1 mg/L,–,> 100 mg/L,–,0.5 mg/L
